Experimental data published in ChEMBL document CHEMBL4665775, “Half-life extension of peptidic APJ agonists by N-terminal lipid conjugation” (Bioorg Med Chem Lett, 2020).

What was measured:
Apelin receptor = target: T1, Apelin receptor (Rattus norvegicus, UniProt Q9JHG3); experiment: Agonist activity at rat APJ receptor stably expressed in CHO cell membranes in presence of [35S]GTPgammaS by scintillation proximity assay; type: functional
T1 sequence (Q9JHG3 whole entry): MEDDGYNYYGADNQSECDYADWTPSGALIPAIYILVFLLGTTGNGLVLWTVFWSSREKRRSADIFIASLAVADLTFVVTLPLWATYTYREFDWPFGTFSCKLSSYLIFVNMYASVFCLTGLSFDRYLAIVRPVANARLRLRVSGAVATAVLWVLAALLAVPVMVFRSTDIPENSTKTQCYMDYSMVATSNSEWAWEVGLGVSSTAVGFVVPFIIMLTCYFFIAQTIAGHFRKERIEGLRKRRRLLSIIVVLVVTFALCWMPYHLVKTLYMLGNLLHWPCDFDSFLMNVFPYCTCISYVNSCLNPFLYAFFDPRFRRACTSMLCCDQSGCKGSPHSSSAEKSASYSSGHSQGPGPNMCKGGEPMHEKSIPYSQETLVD

[1] = Plasma protein binding in rat assessed as unbound fraction by LC-MS/MS analysis; type: ADME, cell-free
[2] = Stability in rat Kidney S9 fraction assessed as compound remaining at 4 hrs; type: ADME, subcellular; settings: read-out: Stabilty
[3] = Stability in rat plasma assessed as compound remaining at 4 hrs; type: ADME, cell-free; settings: read-out: Stabilty

EC50 (Apelin receptor) [nM]	fraction unbound [1]	remaining at 4 h [2] [%]	remaining at 4 h [3] [%]	SMILES
3.63	0.0023	–	–	CCCCCCCCCCCCCC(=O)N[C@@H](CCC(=O)NCCOCCOCC(=O)NCCOCCOCC(=O)N[C@@H](CCCCNC(=N)N)C(=O)N[C@H](CCCNC(=N)N)C(=O)N[C@@H](CCC(N)=O)C(=O)N[C@@H](CCCCNC(=N)N)C(=O)N1CCC[C@H]1C(=O)N[C@H](CCCNC(=N)N)C(=O)N(C)[C@@H](CC(C)C)C(=O)N[C@@H](CO)C(=O)N[C@@H](Cc1c[nH]cn1)C(=O)N[C@@H](CCCCN)C(=O)NCC(=O)N1[C@H](C(=O)N[C@@H](Cc2ccc(I)cc2)C(=O)N2CCC[C@H]2C(=O)N[C@H](Cc2ccc(-c3ccccc3)cc2)C(=O)O)C[C@@H]2CCCC[C@@H]21)C(=O)O
3.05	0.0027	–	–	CCCCCCCC(=O)N[C@@H](CCC(=O)NCCOCCOCC(=O)NCCOCCOCC(=O)N[C@@H](CCCCNC(=N)N)C(=O)N[C@H](CCCNC(=N)N)C(=O)N[C@@H](CCC(N)=O)C(=O)N[C@@H](CCCCNC(=N)N)C(=O)N1CCC[C@H]1C(=O)N[C@H](CCCNC(=N)N)C(=O)N(C)[C@@H](CC(C)C)C(=O)N[C@@H](CO)C(=O)N[C@@H](Cc1c[nH]cn1)C(=O)N[C@@H](CCCCN)C(=O)NCC(=O)N1[C@H](C(=O)N[C@@H](Cc2ccc(I)cc2)C(=O)N2CCC[C@H]2C(=O)N[C@H](Cc2ccc(-c3ccccc3)cc2)C(=O)O)C[C@@H]2CCCC[C@@H]21)C(=O)O
56.1	–	–	–	CC(C)C[C@@H](C(=O)N[C@@H](CO)C(=O)N[C@@H](Cc1c[nH]cn1)C(=O)N[C@@H](CCCCN)C(=O)NCC(=O)N1[C@H](C(=O)N[C@@H](Cc2ccc(I)cc2)C(=O)N2CCC[C@H]2C(=O)N[C@H](Cc2ccc(-c3ccccc3)cc2)C(=O)O)C[C@@H]2CCCC[C@@H]21)N(C)C(=O)[C@@H](CCCNC(=N)N)NC(=O)[C@@H]1CCCN1C(=O)[C@H](CCCCNC(=N)N)NC(=O)[C@H](CCC(N)=O)NC(=O)[C@@H](CCCNC(=N)N)NC(=O)[C@H](CCCCNC(=N)N)NC(=O)COCCOCCNC(=O)COCCOCCNC(=O)CC[C@H](NC(=O)CCCCCCCCCCCCCCC(=O)O)C(=O)O
4.01	0.0189	–	–	CCCCCCCCCCCCCCCC(=O)N[C@@H](CCC(=O)NCCOCCOCC(=O)NCCOCCOCC(=O)N[C@@H](CCCCNC(=N)N)C(=O)N[C@H](CCCNC(=N)N)C(=O)N[C@@H](CCC(N)=O)C(=O)N[C@@H](CCCCNC(=N)N)C(=O)N1CCC[C@H]1C(=O)N[C@H](CCCNC(=N)N)C(=O)N(C)[C@@H](CC(C)C)C(=O)N[C@@H](CO)C(=O)N[C@@H](Cc1c[nH]cn1)C(=O)N[C@@H](CCCCN)C(=O)NCC(=O)N1[C@H](C(=O)N[C@@H](Cc2ccc(I)cc2)C(=O)N2CCC[C@H]2C(=O)N[C@H](Cc2ccc(-c3ccccc3)cc2)C(=O)O)C[C@@H]2CCCC[C@@H]21)C(=O)O
0.49	–	–	–	CC(C)C[C@@H](C(=O)N[C@@H](CO)C(=O)N[C@@H](Cc1c[nH]cn1)C(=O)N[C@@H](CCCCN)C(=O)NCC(=O)N1[C@H](C(=O)N[C@@H](Cc2ccc(I)cc2)C(=O)N2CCC[C@H]2C(=O)N[C@H](Cc2ccc(-c3ccccc3)cc2)C(=O)O)C[C@@H]2CCCC[C@@H]21)N(C)C(=O)[C@@H](CCCNC(=N)N)NC(=O)[C@@H]1CCCN1C(=O)[C@H](CCCCNC(=N)N)NC(=O)[C@H](CCC(N)=O)NC(=O)[C@@H](CCCNC(=N)N)NC(=O)[C@H](CCCCNC(=N)N)NC(=O)COCCOCCNC(=O)COCCOCCNC(=O)CC[C@H](NC(=O)CCC(=O)O)C(=O)O
9.34	–	–	–	CC(C)C[C@@H](C(=O)N[C@@H](CO)C(=O)N[C@@H](Cc1c[nH]cn1)C(=O)N[C@@H](CCCCN)C(=O)NCC(=O)N1[C@H](C(=O)N[C@@H](Cc2ccc(I)cc2)C(=O)N2CCC[C@H]2C(=O)N[C@H](Cc2ccc(-c3ccccc3)cc2)C(=O)O)C[C@@H]2CCCC[C@@H]21)N(C)C(=O)[C@@H](CCCNC(=N)N)NC(=O)[C@@H]1CCCN1C(=O)[C@H](CCCCNC(=N)N)NC(=O)[C@H](CCC(N)=O)NC(=O)[C@@H](CCCNC(=N)N)NC(=O)[C@H](CCCCNC(=N)N)NC(=O)COCCOCCNC(=O)COCCOCCNC(=O)CC[C@H](NC(=O)CCCCCCCCCCC(=O)O)C(=O)O
0.24	–	–	–	CCCC(=O)N[C@@H](CCC(=O)NCCOCCOCC(=O)NCCOCCOCC(=O)N[C@@H](CCCCNC(=N)N)C(=O)N[C@H](CCCNC(=N)N)C(=O)N[C@@H](CCC(N)=O)C(=O)N[C@@H](CCCCNC(=N)N)C(=O)N1CCC[C@H]1C(=O)N[C@H](CCCNC(=N)N)C(=O)N(C)[C@@H](CC(C)C)C(=O)N[C@@H](CO)C(=O)N[C@@H](Cc1c[nH]cn1)C(=O)N[C@@H](CCCCN)C(=O)NCC(=O)N1[C@H](C(=O)N[C@@H](Cc2ccc(I)cc2)C(=O)N2CCC[C@H]2C(=O)N[C@H](Cc2ccc(-c3ccccc3)cc2)C(=O)O)C[C@@H]2CCCC[C@@H]21)C(=O)O
2.61	–	–	–	CC(C)C[C@@H](C(=O)N[C@@H](CO)C(=O)N[C@@H](Cc1c[nH]cn1)C(=O)N[C@@H](CCCCN)C(=O)NCC(=O)N1[C@H](C(=O)N[C@@H](Cc2ccc(I)cc2)C(=O)N2CCC[C@H]2C(=O)N[C@H](Cc2ccc(-c3ccccc3)cc2)C(=O)O)C[C@@H]2CCCC[C@@H]21)N(C)C(=O)[C@@H](CCCNC(=N)N)NC(=O)[C@@H]1CCCN1C(=O)[C@H](CCCCNC(=N)N)NC(=O)[C@H](CCC(N)=O)NC(=O)[C@@H](CCCNC(=N)N)NC(=O)[C@H](CCCCNC(=N)N)NC(=O)COCCOCCNC(=O)COCCOCCNC(=O)CC[C@H](NC(=O)CCCCCCC(=O)O)C(=O)O
1.35	–	–	–	CCCCCCCCCC(=O)N[C@@H](CCC(=O)NCCOCCOCC(=O)NCCOCCOCC(=O)N[C@@H](CCCCNC(=N)N)C(=O)N[C@H](CCCNC(=N)N)C(=O)N[C@@H](CCC(N)=O)C(=O)N[C@@H](CCCCNC(=N)N)C(=O)N1CCC[C@H]1C(=O)N[C@H](CCCNC(=N)N)C(=O)N(C)[C@@H](CC(C)C)C(=O)N[C@@H](CO)C(=O)N[C@@H](Cc1c[nH]cn1)C(=O)N[C@@H](CCCCN)C(=O)NCC(=O)N1[C@H](C(=O)N[C@@H](Cc2ccc(I)cc2)C(=O)N2CCC[C@H]2C(=O)N[C@H](Cc2ccc(-c3ccccc3)cc2)C(=O)O)C[C@@H]2CCCC[C@@H]21)C(=O)O
17.8	–	–	–	CC(C)C[C@@H](C(=O)N[C@@H](CO)C(=O)N[C@@H](Cc1c[nH]cn1)C(=O)N[C@@H](CCCCN)C(=O)NCC(=O)N1[C@H](C(=O)N[C@@H](Cc2ccc(I)cc2)C(=O)N2CCC[C@H]2C(=O)N[C@H](Cc2ccc(-c3ccccc3)cc2)C(=O)O)C[C@@H]2CCCC[C@@H]21)N(C)C(=O)[C@@H](CCCNC(=N)N)NC(=O)[C@@H]1CCCN1C(=O)[C@H](CCCCNC(=N)N)NC(=O)[C@H](CCC(N)=O)NC(=O)[C@@H](CCCNC(=N)N)NC(=O)[C@H](CCCCNC(=N)N)NC(=O)COCCOCCNC(=O)COCCOCCNC(=O)CC[C@H](NC(=O)CCCCCCCCCCCCC(=O)O)C(=O)O
3.78	–	–	–	CCCCCCCCCCCCCCCCCC(=O)N[C@@H](CCC(=O)NCCOCCOCC(=O)NCCOCCOCC(=O)N[C@@H](CCCCNC(=N)N)C(=O)N[C@H](CCCNC(=N)N)C(=O)N[C@@H](CCC(N)=O)C(=O)N[C@@H](CCCCNC(=N)N)C(=O)N1CCC[C@H]1C(=O)N[C@H](CCCNC(=N)N)C(=O)N(C)[C@@H](CC(C)C)C(=O)N[C@@H](CO)C(=O)N[C@@H](Cc1c[nH]cn1)C(=O)N[C@@H](CCCCN)C(=O)NCC(=O)N1[C@H](C(=O)N[C@@H](Cc2ccc(I)cc2)C(=O)N2CCC[C@H]2C(=O)N[C@H](Cc2ccc(-c3ccccc3)cc2)C(=O)O)C[C@@H]2CCCC[C@@H]21)C(=O)O
3.56	0.0013	–	–	CCCCCCCCCCCC(=O)N[C@@H](CCC(=O)NCCOCCOCC(=O)NCCOCCOCC(=O)N[C@@H](CCCCNC(=N)N)C(=O)N[C@H](CCCNC(=N)N)C(=O)N[C@@H](CCC(N)=O)C(=O)N[C@@H](CCCCNC(=N)N)C(=O)N1CCC[C@H]1C(=O)N[C@H](CCCNC(=N)N)C(=O)N(C)[C@@H](CC(C)C)C(=O)N[C@@H](CO)C(=O)N[C@@H](Cc1c[nH]cn1)C(=O)N[C@@H](CCCCN)C(=O)NCC(=O)N1[C@H](C(=O)N[C@@H](Cc2ccc(I)cc2)C(=O)N2CCC[C@H]2C(=O)N[C@H](Cc2ccc(-c3ccccc3)cc2)C(=O)O)C[C@@H]2CCCC[C@@H]21)C(=O)O
2.89	–	–	–	CC(C)C[C@@H](C(=O)N[C@@H](CO)C(=O)N[C@@H](Cc1c[nH]cn1)C(=O)N[C@@H](CCCCN)C(=O)NCC(=O)N1[C@H](C(=O)N[C@@H](Cc2ccc(I)cc2)C(=O)N2CCC[C@H]2C(=O)N[C@H](Cc2ccc(-c3ccccc3)cc2)C(=O)O)C[C@@H]2CCCC[C@@H]21)N(C)C(=O)[C@@H](CCCNC(=N)N)NC(=O)[C@@H]1CCCN1C(=O)[C@H](CCCCNC(=N)N)NC(=O)[C@H](CCC(N)=O)NC(=O)[C@@H](CCCNC(=N)N)NC(=O)[C@H](CCCCNC(=N)N)NC(=O)COCCOCCNC(=O)COCCOCCNC(=O)CC[C@H](NC(=O)CCCCCCCCC(=O)O)C(=O)O
0.92	0.001	30	> 90	CC(=O)N[C@@H](CCC(=O)NCCOCCOCC(=O)NCCOCCOCC(=O)N[C@@H](CCCCNC(=N)N)C(=O)N[C@H](CCCNC(=N)N)C(=O)N[C@@H](CCC(N)=O)C(=O)N[C@@H](CCCCNC(=N)N)C(=O)N1CCC[C@H]1C(=O)N[C@H](CCCNC(=N)N)C(=O)N(C)[C@@H](CC(C)C)C(=O)N[C@@H](CO)C(=O)N[C@@H](Cc1c[nH]cn1)C(=O)N[C@@H](CCCCN)C(=O)NCC(=O)N1[C@H](C(=O)N[C@@H](Cc2ccc(I)cc2)C(=O)N2CCC[C@H]2C(=O)N[C@H](Cc2ccc(-c3ccccc3)cc2)C(=O)O)C[C@@H]2CCCC[C@@H]21)C(=O)O
